The structures appear in SMILES notation. Values after ≈ are worked out from the molar mass of the structure shown.

The conditions of this series: buffer; pH 7.4; 200.0 µM.
`COCC(C)n1c(SCC(=O)Nc2c(C)n(C)n(-c3ccccc3)c2=O)nc2ccccc2c1=O` (centres undefined): the kinetic solubility (as a rule, solubility judged after dilution from a stock solution rather than from solid) was more than 74 µg/mL.
Molecule `O=[N+]([O-])c1cccnc1Oc1ccc(F)cc1F` showed a solubility (kinetic) of 28.3 µg/mL (≈ 112 µM).
To `C=CCn1c(SC(F)F)nc2scc(-c3ccco3)c2c1=O` belongs less than 0.4 µg/mL; to `CC(=O)Nc1ccc(NC(=O)C(C)OC(=O)CCSc2ccccc2Cl)cc1` (centres undefined), 10.2 µg/mL (≈ 24.2 µM).
As for `N#CC(c1ccccc1)N1CCOCC1` (centres undefined), the solubility (kinetic) worked out at 20.7 µg/mL (≈ 102 µM).
`CNC(=O)c1cccc2cccc(Sc3ccccc3C(=O)O)c12` displayed a solubility (kinetic) of 44.2 µg/mL (≈ 131 µM).
For `COC(=O)COc1ccc(S(=O)(=O)N2CCCCCC2)cc1` the value was 42.9 µg/mL (≈ 131 µM); for `Cc1ccc(CCSc2ccc(F)cc2)cn1.O=C(O)C(=O)O`, 25.2 µg/mL; for `CS(=O)(=O)c1cccc(C(=O)OCC(=O)NC(=O)Nc2ccccc2F)c1`, 5.2 µg/mL (≈ 13.2 µM).
To `O=C(COC(=O)c1ccncc1)Nc1ccc2c(c1)OCO2` belongs more than 45 µg/mL; to `COc1cc(OC)cc(C(=O)N[C@H](C(=O)NC2=NCCS2)C(C)C)c1`, more than 54.8 µg/mL.
To `O=C(CCNS(=O)(=O)c1ccccc1)N1CCOCC1` belongs more than 44.8 µg/mL.
In turn, `CC(C)C(NC(=O)CCN1C(=O)c2ccccc2C1=O)c1ccccc1` (centres undefined) gave a kinetic solubility of 18.3 µg/mL (≈ 52.2 µM).
In the case of `CCC(C)c1ccccc1NC(=O)C(C)OC(=O)c1ccco1` (centres undefined), the solubility (kinetic) is more than 47.3 µg/mL.
`O=C(Nc1ccccc1O)N1c2ccccc2Sc2ccccc21` came in with a solubility (kinetic) of less than 0.4 µg/mL.
Take `C/C(=N\OCc1ccccc1C#N)c1cc2ccccc2o1`: the solubility (kinetic) was found to be 1.1 µg/mL (≈ 3.79 µM).
For `Cc1cnc(C(=O)OCC(=O)Nc2cccc(S(=O)(=O)N3CCOCC3)c2)cn1` the value was more than 63.1 µg/mL; for `O=C1Cc2cc(S(=O)(=O)Nc3ccc(N4CCOCC4)cc3)ccc2N1`, more than 56 µg/mL; for `CCCC(C)NC(=O)CSc1nc2ccc(C)cc2[nH]1` (centres undefined), more than 43.7 µg/mL.
To `Cc1cccc(NC(=O)CSc2cccc[n+]2[O-])c1C` belongs 39.7 µg/mL (≈ 138 µM); to `O=C(NC(=S)N1CCCC1)c1ccccc1Cl`, 35.7 µg/mL (≈ 133 µM).
Molecule `CC(O/N=C(\N)c1ccccc1)C(=O)Nc1cccc(C(F)(F)F)c1` (centres undefined) gave a kinetic solubility of more than 52.7 µg/mL.
For `O=c1c2[nH]c3ccc(F)cc3c2ncn1CCC1=CCCCC1` the value was less than 0.2 µg/mL; for `O=C1COc2ccc(C(=O)COC(=O)Cc3ccccc3F)cc2N1`, 24 µg/mL (≈ 69.9 µM).
The molecule `O=C(NCCc1cccs1)c1cccs1` came in with a solubility (kinetic) of more than 35.6 µg/mL.
For `O=C(CN1CCC(C(=O)O)CC1)Nc1ccccc1Oc1ccccc1` the value was 47.5 µg/mL (≈ 134 µM).
For `Cc1ccc(CN(C)CC(=O)NC(C)c2ccccc2)cc1` (centres undefined) the value was more than 44.5 µg/mL; for `CCc1ccc(NC(=S)Nc2ccc3[nH]c(=O)[nH]c3c2)cc1`, 13.5 µg/mL (≈ 43.2 µM); for `COc1ccccc1NC(=O)/C(C#N)=C/c1cccnc1`, 41.3 µg/mL (≈ 148 µM).
For `Cn1c(=O)c2c(nc3n2CCS3)n(C)c1=O` the value was more than 35.7 µg/mL; for `O=C(CSc1ncccn1)Nc1cccc(S(=O)(=O)N2CCOCC2)c1`, more than 59.2 µg/mL; for `Cc1ccc(Nc2ncnc3sccc23)c(C)c1`, more than 38.3 µg/mL.
With `CCCc1c(C)nn(-c2ncccc2[N+](=O)[O-])c1C`, the kinetic solubility was more than 39 µg/mL.
To `O=S1(=O)N=C(Nc2ccc(O)cc2)c2ccccc21` belongs 11 µg/mL (≈ 40.1 µM); to `CCOc1ccc2c(c1)C(=O)C(=O)N2CC1COc2ccccc2O1` (centres undefined), 1.2 µg/mL (≈ 3.54 µM).
To `COC(=O)c1ccc(N=C2SCC(=O)N2C)cc1` belongs more than 39.6 µg/mL; to `Cc1ccccc1Sc1ncccc1[N+](=O)[O-]`, 5.1 µg/mL (≈ 20.7 µM); to `CC(=O)N[C@@H](Cc1c[nH]c2ccccc12)C(=O)OCc1cc(C(F)(F)F)cc(C(F)(F)F)c1`, 3.4 µg/mL (≈ 7.2 µM).
For `CC1CCN(Cc2cc(=O)oc3cc(O)c(Cl)cc23)CC1`, the solubility (kinetic) is more than 46.2 µg/mL.
For `Cc1ccc(C)n1-c1ccc(C#N)cn1` the value was 26.6 µg/mL (≈ 135 µM).
Molecule `COCCNC(=O)C12CC3CC(CC(Cl)(C3)C1)C2` yielded a solubility (kinetic) of more than 40.8 µg/mL.
In the case of `CN(Cc1ccccc1F)C(=O)c1ccc(Oc2ccccc2)cc1`, the kinetic solubility amounted to 4.2 µg/mL (≈ 12.5 µM).
Regarding `COc1cc(C(=O)OCCNC(=O)c2cccnc2)cc(OC)c1OC.Cl`, the kinetic solubility is more than 59.5 µg/mL.
To `Cc1ccc2oc(C(=O)N(C)Cc3ccon3)c(C)c2c1` belongs 39.2 µg/mL (≈ 138 µM); to `OCc1ccccc1OCCCOc1cccc2cccnc12`, more than 46.4 µg/mL; to `CCOC(=O)N[C@H](Cc1c[nH]c2ccccc12)C(=O)NC1CC1`, more than 47.3 µg/mL.
`O=C(Cn1cc([N+](=O)[O-])ccc1=O)N1CCc2ccccc21` came in with a kinetic solubility of 11.3 µg/mL (≈ 37.8 µM).
For `COc1ccc(Nc2nc(N)c([N+](=O)[O-])c(NCc3ccccc3)n2)cc1` the value was less than 0.1 µg/mL; for `Cn1c(=O)c(=O)n(C)c2cc([N+](=O)[O-])c([N+](=O)[O-])cc21`, more than 42 µg/mL.
For `O=C(NCCc1cnc[nH]1)c1cccs1` the value was more than 33.2 µg/mL; for `CCOC(=O)c1sc(=S)n(CC)c1NC(=O)c1ccccc1`, 8.8 µg/mL (≈ 26.2 µM); for `COc1ccc(NC(=O)C2CCCC2)cc1`, 30.3 µg/mL (≈ 138 µM).
For `O=C(CCSc1ccccc1)Nc1ccccc1Br` the value was 6.6 µg/mL (≈ 19.6 µM); for `COc1ccc(OCCNC(=O)/C=C/c2ccccc2)cc1`, 4.9 µg/mL (≈ 16.5 µM); for `COc1cccc(CNC(=O)c2ccncc2)c1`, 36.3 µg/mL (≈ 150 µM).
`COc1ccccc1C(=O)NCCC(=O)NCCOc1ccccc1` yielded a kinetic solubility of more than 51.4 µg/mL.
To `CC1NC(=S)N(C2CCCCC2)C1=O` (centres undefined) belongs more than 31.8 µg/mL; to `CCOCCCNC(=S)N1CCC(C(=O)c2ccc(C)cc2)CC1`, 51.8 µg/mL (≈ 149 µM).
In turn, `Cc1ccc(C(=O)NCCN2CCOCC2)c(Cl)c1` had a solubility (kinetic) of more than 42.4 µg/mL.
Turning to `CCOc1ccc(S(=O)(=O)NC(C)C(=O)NCc2ccccn2)cc1` (centres undefined), the solubility (kinetic) was more than 54.5 µg/mL.
The molecule `COc1ccccc1/C=C/C1NC(=O)NC(C)=C1C(=O)OC(C)C` (centres undefined) showed a kinetic solubility of 0.4 µg/mL (≈ 1.21 µM).
To `Cc1ccccc1NC(=O)CSC(=O)c1ccccc1` belongs 12.5 µg/mL (≈ 43.8 µM); to `COc1ccc(NC(=O)CCNC(=O)c2ccco2)cc1OC`, 47.3 µg/mL (≈ 149 µM).
With `Cn1cccc1/C=N\NC(=O)C1COc2ccccc2O1` (centres undefined), the solubility (kinetic) was more than 42.8 µg/mL.
To `COc1cccc(C(=O)NC2CCCc3ccccc32)c1` (centres undefined) belongs 7.8 µg/mL (≈ 27.7 µM); to `COc1cc2ncnc(NCc3ccc(C)o3)c2cc1OC`, 35 µg/mL (≈ 117 µM).
To `CN(CC(=O)NCCCN1CCOCC1)S(=O)(=O)c1ccc(Cl)cc1` belongs more than 58.5 µg/mL.
Consider `O=C(N/N=C/c1cccnc1)c1ccccc1Cl`, for which the kinetic solubility is more than 39 µg/mL.
For `O=C(NCCCN1CCOCC1)C1CC(=O)N(c2ccccc2)C1` (centres undefined) the value was more than 49.7 µg/mL; for `Cc1ccc(SCCC(=O)NCc2ccccn2)cc1`, more than 43 µg/mL; for `Cc1ccc(NC(=O)C2CCCN2C(=O)c2cccs2)c(C)c1` (centres undefined), 24 µg/mL (≈ 73.1 µM).
To `Cc1ccc(C)c(CSCC(=O)NCc2cccs2)c1` belongs 41.8 µg/mL (≈ 137 µM); to `O=C(Nc1ccc([N+](=O)[O-])c(NC(=O)c2cccnc2)c1)c1cccnc1`, 3.3 µg/mL (≈ 9.08 µM).
To `Clc1cccc(Cl)c1C[n+]1cccc2ccccc21.[Br-]` belongs 51.6 µg/mL.

Source of the values: PubChem BioAssay AID1996.
